Test results published in ChEMBL document CHEMBL3714762, “Agents and methods for treating ischemic and other diseases” (2012).
≈ marks a conversion by molar mass, not a printed value.

Legend:
[1] = Solubility in aqueous solution; format: physicochemical
HeLa = test: Antiproliferative activity against human HeLa cells assessed as inhibition of cell proliferation at 10 uM incubated for 72 hrs by Cell-titer-Glo cell viability assay; format: functional
MCF7 = test: Antiproliferative activity against human MCF7 cells assessed as inhibition of cell proliferation at 10 uM incubated for 72 hrs by Cell-titer-Glo cell viability assay; format: functional; conditions: MCF7, 72 h
[2] = Antiproliferative activity against human MCF10A cells assessed as inhibition of cell proliferation at 10 uM incubated for 72 hrs by Cell-titer-Glo cell viability assay; format: cell-based, MCF-10A
[3] = Antiproliferative activity against mouse B16F10 cells assessed as inhibition of cell proliferation at 10 uM incubated for 72 hrs by Cell-titer-Glo cell viability assay; format: functional; conditions: B16-F10, 72 h
Y79 = test: Antiproliferative activity against human Y79 cells assessed as inhibition of cell proliferation at 10 uM incubated for 72 hrs by Cell-titer-Glo cell viability assay; format: functional; conditions: Y79, 72 h
[4] = Antiproliferative activity against human WERI cells assessed as inhibition of cell proliferation by measuring normalized ratio of propidium iodide uptake at 5 uM by propidium iodide uptake based fluoroskan microplate reader analysis; format: functional
[5] = Antiproliferative activity against human WERI cells assessed as inhibition of cell proliferation by measuring normalized ratio of propidium iodide uptake at 10 uM by propidium iodide uptake based fluoroskan microplate reader analysis; format: functional
[6] = Antiproliferative activity against human WERI cells assessed as inhibition of cell proliferation by propidium iodide uptake based fluoroskan microplate reader analysis; format: functional
[7] = Antiproliferative activity against human DMS53 cells assessed as inhibition of cell proliferation at 10 uM incubated for 72 hrs by Cell-titer-Glo cell viability assay; format: functional; conditions: DMS-53, 72 h
[8] = Antiproliferative activity against human WI38 cells assessed as inhibition of cell proliferation at 10 uM incubated for 72 hrs by Cell-titer-Glo cell viability assay; format: cell-based, WI-38
[9] = Stability in rat microsomes assessed half life; format: ADME, Microsome
[10] = Antiproliferative activity against human WERI cells assessed as inhibition of cell proliferation at 10 uM by propidium iodide uptake based fluoroskan microplate reader analysis; format: functional
[11] = Antiproliferative activity against human WERI cells assessed as inhibition of cell proliferation at 5 uM by propidium iodide uptake based fluoroskan microplate reader analysis; format: functional

`COc1cc2c(cc1OC)C(c1sc3cccc(C)c3c1Cl)NCC2` (stereo not given) gave a solubility [1] of 100 µM (≈ 37.4 µg/mL).

For `COc1ccc2sc(C(=O)N3CCCc4cc(C)ccc43)c(Cl)c2c1`, the inhibition at 10 µM (HeLa) was > 40%, the inhibition at 10 µM (MCF7) was > 40% and the inhibition at 72 h, 10 µM [2] was > 40%. The inhibition at 10 µM [3] was > 40%, the inhibition at 10 µM (Y79) was > 40% and the Ratio [4] was 0.116. The Ratio [5] was 0.051 and the IC50 [6] was 2830 nM.

For `COc1ccc2c(c1)C(c1sc3cccc(C)c3c1Cl)=NCC2`, the inhibition at 10 µM (HeLa) was > 40%, the inhibition at 10 µM (MCF7) was > 40% and the inhibition at 72 h, 10 µM [2] was > 40%. The inhibition at 10 µM (Y79) was > 40%, the inhibition at 10 µM [7] was > 40% and the inhibition at 72 h, 10 µM [8] was > 40%. It also gave a Ratio [4] of 0.019, a Ratio [5] of 0.047 and an IC50 [6] of 1310 nM.

In the case of `COc1ccc(C)c(N(Cc2cccnc2)C(=O)c2sc3ccccc3c2Cl)c1`, the inhibition at 10 µM (HeLa) is reported as > 40%, the Ratio [4] is reported as 0.08 and the Ratio [5] is reported as 0.1. It also gave an IC50 [6] of 2370 nM.

In the case of `COc1ccc2c(c1)CCN(C)C2c1sc2ccccc2c1Cl` (stereo not given), the Ratio [4] is reported as 0.344, the Ratio [5] is reported as 0.027 and the IC50 [6] is reported as 4340 nM.

For `O=C(NCc1ccccc1N1CCCC1)c1sc2ccccc2c1Cl`, the inhibition at 10 µM (HeLa) was > 40%, the inhibition at 10 µM (MCF7) was > 40% and the inhibition at 72 h, 10 µM [2] was > 40%. The inhibition at 10 µM [3] was > 40%, the inhibition at 10 µM (Y79) was > 40% and the inhibition at 10 µM [7] was > 40%. For the same compound, the Ratio [4] was 0.195, the Ratio [5] was 0.375 and the IC50 [6] was 1250 nM.

Compound `COc1cc2c(cc1OC)C(c1sc3ccccc3c1Cl)N(C)CC2` (stereo not given) has a Ratio [4] of 0.042, a Ratio [5] of 0 and an IC50 [6] of 1770 nM.

For `COc1cc(OC)c2c(C)c(Cc3ccccc3)c(=O)[nH]c2c1`, the half-life [9] was > 30 min.

For `Clc1cccc2c1CCN=C2c1sc2ccccc2c1Cl`, the Ratio [4] was 0.065, the Ratio [5] was 0.1 and the IC50 [6] was 2260 nM.

In the case of `COc1ccc2c(Cl)c(C(=O)N3CCCc4cc(C)ccc43)sc2c1`, the inhibition at 10 µM (HeLa) is reported as > 40%, the inhibition at 10 µM (MCF7) is reported as > 40% and the inhibition at 72 h, 10 µM [2] is reported as > 40%. The inhibition at 10 µM [3] was > 40%, the inhibition at 10 µM (Y79) was > 40% and the inhibition at 10 µM [7] was > 40%. For the same compound, the inhibition at 72 h, 10 µM [8] was > 40%, the Ratio [4] was 0.294 and the Ratio [5] was 0.11. For the same compound, the IC50 [6] was 4030 nM.

In the case of `Cc1ccc2c(c1)CCN=C2c1sc2ccccc2c1Cl`, the inhibition at 10 µM (HeLa) is reported as > 40%, the inhibition at 72 h, 10 µM [2] is reported as > 40% and the inhibition at 10 µM [3] is reported as > 40%. The inhibition at 10 µM (Y79) was > 40%, the Ratio [4] was 0.011 and the Ratio [5] was 0.003. For the same compound, the IC50 [6] was 1830 nM.

For `COc1cccc2c1CCN=C2c1sc2cccc(C)c2c1Cl`, the inhibition at 10 µM (HeLa) was > 40%, the inhibition at 10 µM (MCF7) was > 40% and the inhibition at 72 h, 10 µM [2] was > 40%. For the same compound, the inhibition at 10 µM [3] was > 40%, the inhibition at 10 µM (Y79) was > 40% and the inhibition at 10 µM [7] was > 40%. The inhibition at 72 h, 10 µM [8] was > 40%, the Ratio [4] was 0.042 and the Ratio [5] was 0.13. The IC50 [6] was 360 nM.

Work on `Cc1c(Cc2c(F)cccc2Cl)c(=O)oc2cc(O)cc(O)c12` yielded a half-life [9] of 5 min, a Ratio [4] of 0.721 and a Ratio [5] of 0.102.

With `CN(Cc1ccccc1N1CCCC1)C(=O)c1sc2ccccc2c1Cl` the Ratio [4] was 0.234, the Ratio [5] was 0.043 and the IC50 [6] was 3440 nM.

Work on `CCCc1c(Cc2cccc(Cl)c2)c(=O)[nH]c2cc(OC)cc(OC)c12` yielded a Ratio [4] of 0.072, a Ratio [5] of 0.037 and an IC50 [6] of 960 nM.

Work on `Cc1c(Cc2ccc(Cl)c(Cl)c2)c(=O)oc2cc(O)c(F)cc12` yielded a Ratio [4] of 0.314, a Ratio [5] of 0.002 and an IC50 [6] of 4030 nM.

For `COc1ccc2c(Cl)c(C3NCCc4cc(OC)c(OC)cc43)sc2c1` (stereo not given), the half-life [9] was > 30 min and the solubility [1] was 100 µM (≈ 39 µg/mL).

For `COc1ccc(C)c(N(Cc2ccncc2)C(=O)c2sc3ccccc3c2Cl)c1`, the inhibition at 10 µM (HeLa) was > 40%, the Ratio [4] was 0.573 and the Ratio [5] was 0.228. It also gave an IC50 [6] of 5730 nM.

`Cc1ccc2c(c1)CCCN2C(=O)c1sc2ccc(F)cc2c1Cl` showed a Ratio [4] of 0.321, a Ratio [5] of 0.064 and an IC50 [6] of 4520 nM.

With `Cc1ccc(N(Cc2cccc(C)n2)C(=O)c2sc3ccccc3c2Cl)c(C)c1` the inhibition at 10 µM (HeLa) was > 40%, the inhibition at 10 µM [3] was > 40% and the inhibition at 10 µM (Y79) was > 40%. The Ratio [4] was 0, the Ratio [5] was 0.1 and the IC50 [6] was 840 nM.

With `COc1cc(OC)c2c(C)c(Cc3cccc(Cl)c3)c(=O)oc2c1` the Ratio [4] was 0.088, the Ratio [5] was 0.19 and the IC50 [6] was 770 nM.

In the case of `COc1cc2c(cc1OC)C(c1sc3ccccc3c1Cl)=NCC2`, the solubility [1] is reported as 100 µM (≈ 35.8 µg/mL), the Ratio [4] is reported as 0.011 and the Ratio [5] is reported as 0. It also gave an IC50 [6] of 50 nM.

Work on `COc1cc2c(cc1OC)C(c1sc3cccc(F)c3c1Cl)NCC2` (stereo not given) yielded a Ratio [4] of 0.009, a Ratio [5] of 0 and an IC50 [6] of 490 nM.

In the case of `Cc1ccc(S(=O)(=O)Nc2sc3ccccc3c2Cl)cc1`, the Ratio [4] is reported as 0.297, the Ratio [5] is reported as 0.121 and the IC50 [6] is reported as 3590 nM.

Work on `Cc1ccc2c(c1)CCCN2C(=O)c1sc2cccc(C)c2c1Cl` yielded a Ratio [4] of 0.235, a Ratio [5] of 0.4 and an IC50 [6] of 2020 nM.

For `COc1ccc2c(c1)CCNC2c1sc2ccccc2c1Cl` (stereo not given), the Ratio [4] was 0.016, the Ratio [5] was 0.003 and the IC50 [6] was 1000 nM.

Work on `Fc1ccc2c(c1)CCCN2Cc1sc2ccccc2c1Cl` yielded a Ratio [4] of 0.286, a Ratio [5] of 0.098 and an IC50 [6] of 4090 nM.

For `Cc1ccc2c(c1)CCCN2C(=O)c1sc2cccc(F)c2c1Cl`, the Ratio [4] was 0.273, the Ratio [5] was 0.097 and the IC50 [6] was 3290 nM.

Work on `COc1ccc2c(c1)C(c1sc3ccccc3c1Cl)=NCC2` yielded a Ratio [4] of 0.36, a Ratio [5] of 0.07 and an IC50 [6] of 3210 nM.

`COc1cc2c(cc1OC)CN(C(=O)c1sc3ccccc3c1Cl)CC2` showed a Ratio [4] of 0.042, a Ratio [5] of 0.024 and an IC50 [6] of 620 nM.

Compound `COc1cc2c(cc1OC)C(c1sc3cccc(OC)c3c1Cl)NCC2` (stereo not given) has a Ratio [4] of 0.008, a Ratio [5] of 0.012 and an IC50 [6] of 320 nM.

In the case of `Cc1c(Cc2cccc(Cl)c2)c(=O)oc2cc(O)ccc12`, the Ratio [4] is reported as 0.41, the Ratio [5] is reported as 0.041 and the IC50 [6] is reported as 5590 nM.

With `COc1cc2c(cc1OC)C(c1sc3cccc(C)c3c1Cl)=NCC2` the inhibition at 10 µM (HeLa) was > 40%, the inhibition at 10 µM (MCF7) was > 40% and the inhibition at 72 h, 10 µM [2] was > 40%. For the same compound, the inhibition at 10 µM [3] was > 40%, the inhibition at 10 µM (Y79) was > 40% and the inhibition at 10 µM [7] was > 40%. For the same compound, the inhibition at 72 h, 10 µM [8] was > 40%, the solubility [1] was 100 µM (≈ 37.2 µg/mL) and the Ratio [4] was 0.042. The Ratio [5] was 0.028 and the IC50 [6] was 340 nM.

For `Cc1ccc(N(C)C(=O)c2sc3ccccc3c2Cl)c(C)c1`, the Ratio [4] was 0.53, the Ratio [5] was 0.33 and the IC50 [6] was 4570 nM.

`O=C(c1sc2ccccc2c1Cl)N1CCCc2cc(Cl)ccc21` showed a Ratio [4] of 0.267, a Ratio [5] of 0.049 and an IC50 [6] of 3690 nM.

`O=C(c1sc2ccccc2c1Cl)N1CCCc2ccccc21` gave a Ratio [4] of 0.545, a Ratio [5] of 0.216 and an IC50 [6] of 9800 nM.

`CC1c2ccsc2CCN1C(=O)c1sc2ccccc2c1Cl` (stereo not given) gave a Ratio [4] of 0, a Ratio [5] of 0.056 and an IC50 [6] of 1550 nM.

With `COc1cc2c(cc1OC)C(c1sc3ccccc3c1Cl)NCC2` (stereo not given) the Ratio [4] was 0.019, the Ratio [5] was 0 and the IC50 [6] was 80 nM.

`Cc1ccc2c(c1)CCCN2C(=O)c1[nH]c2ccccc2c1Cl` gave an inhibition at 10 µM [10] of 33%, an inhibition at 5 µM [11] of 9% and a Ratio [4] of 0.77. For the same compound, the Ratio [5] was 0.76.

With `COc1ccc2c(c1)CCCN2C(=O)c1sc2ccccc2c1Cl` the Ratio [4] was 0.695, the Ratio [5] was 0.276 and the IC50 [6] was 5660 nM.
